Patent publication US20090110708A1, “ANIMATE TISSUE ANTISEPSIS” (priority 2007, published 2009)

System: Staphylococcus aureus
Experiment: Kill of Staphylococcus aureus inoculated onto inanimate porcine intestine by forced evaporation of the applied solution
Assay type: cell-based

OO [H2O2, hydrogen peroxide]
death of the organisms (kill by enhanced evaporation) (initial H2O2 concentrations 4%-10% (vol.), 16 mg/cm^2 on tissue, blown air 50° C., 5.0 m/sec): significantly killed
log reduction (no alcohol, 3 minute dry time): 2.21
log reduction (no alcohol, 3.5 minute dry time): 2.68
log reduction (no alcohol, 4 minute dry time): 1.79

ethyl alcohol [10% alcohol (EtOH), reference compound]
log reduction (no peroxide, 10% alcohol (EtOH)): no measurable log reduction
